{"source": "patent US12458673B2", "about": "“Use of specific phages for the treatment of nontuberculosis mycobacteria (NTM) infections” (priority 2019, dated 2025)", "test_system": "M. abscessus clinical isolates", "assay": "Antibiotic resistance profile of clinical isolates", "data": [{"substance": "Trimethoprim/Sulfa", "values": [{"measurement": "Antibiotic Susceptibility", "result": 1}]}]}
